Source: patent publication US7199136B2, “1,4-dihydro-1,4-diphenylpyridine derivatives” (Bayer HealthCare AG, priority 2001, dated 2007)

Experiments:
[1] = molecular target: T1, human neutrophil elastase (HNE) (Homo sapiens, UniProt P08246); assay: In vitro inhibition of HNE using a fluorogenic peptide substrate (MeOSuc-Ala-Ala-Pro-Val-AMC), 384 MTP format; format: biochemical; details: 37° C.
T1 construct: purchased SERVA Electrophoresis GmbH, Heidelberg, Germany #20927.01
T1 sequence (P08246 30-267): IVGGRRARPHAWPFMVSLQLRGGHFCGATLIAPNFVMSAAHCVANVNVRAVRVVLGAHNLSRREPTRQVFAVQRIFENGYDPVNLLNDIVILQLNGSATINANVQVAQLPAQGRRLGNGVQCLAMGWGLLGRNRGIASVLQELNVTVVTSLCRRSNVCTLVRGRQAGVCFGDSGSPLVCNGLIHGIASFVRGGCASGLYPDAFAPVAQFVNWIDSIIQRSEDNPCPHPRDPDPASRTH
Description: I. In Vitro Assays of Human Neutrophil Elastase (HNE)
The test solution is prepared by mixing 10 μl of test compound dilution, 20 μl of HNE enzyme dilution (final concentration 8–0.4 μU/ml, routinely 2.1 μU/ml) and 20 μl of substrate dilution (final concentration 1 mM–1 μM, routinely 20 μM), respectively. The solution is incubated for 0–2 hrs at 37° C. (routinely one hour). The fluorescence of the liberated AMC due to the enzymatic reaction is measured at 37° C. (TECAN spectra fluor plus plate reader). […] IC50 values are determined by RFU-versus-[I] plots. Km and Km(app.) values are determined by Lineweaver-Burk plots and converted to Ki values by Dixon plots.

[2] = system: human polymorphonuclear cells (PMNs); assay: In vitro PMN elastolysis assay (tritiated elastin); format: cell-based
Description: II. In Vitro PMN Elastolysis Assay
This assay is used to determine the elastolytic potential of human polymorphonuclear cells (PMNs) and assess the proportion of degradation due to neutrophil elastase [cf. Z. W. She et al., Am. J. Respir. Cell. Mol. Biol. 9, 386–392 (1993)].
Tritiated elastin, in suspension, is coated on to a 96 well plate at 10 μg per well. Test and reference [ZD-0892 (J. Med. Chem. 40, 1876–1885, 3173–3181 (1997), WO 95/21855) and α1 protease inhibitor (α1PI)] compounds are added to the wells at the appropriate concentrations. Human PMNs are separated from peripheral venous blood of healthy donors and resuspended in culture media. […] Porcine pancreatic elastase (1.3 μM is used as a positive control for the assay, and α1PI (1.2 μM) is used as the positive inhibitor of neutrophil elastase. The cellular control is PMNs without compound at each appropriate cell density. The cells plus compounds are incubated in a humidified incubator at 37° C. for 4 hours. The plates are centrifuged to allow the harvest of cell supernatant only. The supernatant is transferred in 75 μl volumes to corresponding wells of a 96 well Lumaplate™ (solid scintillant containing plates). The plates are dried until no liquid is visible in the wells and read in a beta counter for 3 minutes per well. […]

| Compound | IC50 [1] | also measured |
| --- | --- | --- |
| CCOC(=O)C1=C(N)N(c2cccc(CN(CC)CC)c2)C(C)=C(C(C)=O)C1c1ccc(C#N)cc1 (stereo not shown) [Example 17, Ethyl 5-acetyl-2-amino-4-(4-cyanophenyl)-1-{3-[(diethylamino)methyl]phenyl}-6-methyl-1,4-dihydro-3-pyridinecarboxylate] | 9000 nM | – |
| COc1ccc(C(=O)N[C@H](C(=O)N2CCC[C@H]2C(=O)N[C@H](C(=O)C(F)(F)F)C(C)C)C(C)C)cc1 [ZD-0892, reference compound] | – | IC50 ([2]; n=2 different donors at 3.6×10^5 cells per well, read-out: IC50 (mean±s.e.m.) of elastolysis inhibition): 45.5 ± 7.75 nM |
| CCOC(=O)C1=CN(c2cccc(C(F)(F)F)c2)C(C)=C(C(C)=O)C1c1ccc(C#N)cc1 (racemic) [Example 8, (±)-Ethyl 5-acetyl-4-(4-cyanophenyl)-6-methyl-1-[3-(trifluoromethyl)phenyl]-1,4-dihydro-3-pyridinecarboxylate] | 330 nM | – |
| α1PI: α1 protease inhibitor, used as the positive inhibitor of neutrophil elastase | – | inhibition of 3H-elastin elastolysis (mean±s.e.m.) ([2]; at 1.2 μM, n=3 different donors at 3.6×10^5 cells per well, 4 hours at 37° C.): 83.46±3.97% |

More lines, in order of falling IC50 [1], values ahead:

| IC50 [1] | Compound | also measured |
| --- | --- | --- |
| 230 nM | CCOC(=O)C1=C(C)N(c2cccc(C(F)(F)F)c2)C(C)=C(C(C)=O)C1c1ccc(C#N)cc1 (racemic) [Example 10, (±)-Ethyl 5-acetyl-4-(4-cyanophenyl)-2,6-dimethyl-1-[3-(trifluoromethyl)phenyl]-1,4-dihydro-3-pyridinecarboxylate] | – |
| 180 nM | CCOC(=O)C1=C(N)N(c2cccc(C)c2)C(C)=C(C(C)=O)C1c1ccc(C#N)cc1 (stereo not shown) [Example 12, Ethyl 5-acetyl-2-amino-4-(4-cyanophenyl)-6-methyl-1-[3-methylphenyl]-1,4-di-hydro-3-pyridinecarboxylate] | – |
| 120 nM | CC(=O)C1=C(C)N(c2cccc(C(F)(F)F)c2)C(N)=C(C#N)C1c1ccc(C#N)cc1 (stereo not shown) [Example 15, 5-Acetyl-2-amino-4-(4-cyanophenyl)-6-methyl-1-[3-(trifluoromethyl)phenyl]-1,4-dihydro-3-pyridinecarbonitrile] | – |
| 30 nM | CC(=O)C1=C(C)N(c2cccc(C(F)(F)F)c2)C(N)=C(C(N)=O)C1c1ccc(C#N)cc1 (stereo not shown) [Example 13, 5-Acetyl-2-amino-4-(4-cyanophenyl)-6-methyl-1-[3-(trifluoromethyl)phenyl]-1,4-dihydro-3-pyridinecarboxamide] | – |
| 30 nM | CCOC(=O)C1=C(N)N(c2cc(OC)cc(C(F)(F)F)c2)C(C)=C(C(C)=O)C1c1ccc(C#N)cc1 (stereo not shown) [Example 18, Ethyl 5-acetyl-2-amino-4-(4-cyanophenyl)-1-[3-methoxy-5-(trifluoromethyl)phenyl]-6-methyl-1,4-dihydro-3-pyridinecarboxylate] | – |
| 20 nM | CC(=O)C1=C(C)N(c2cccc(C(F)(F)F)c2)C(=N)C(C(=O)N(C)C)C1c1ccc(C#N)cc1 (stereo not shown) [Example 14, 5-Acetyl-4-(4-cyanophenyl)-2-imino-N,N,6-trimethyl-1-[3-(trifluoromethyl)phenyl]-1,2,3,4-tetrahydro-3-pyridinecarboxamide] | – |
